In ChEMBL document CHEMBL1152888, “Synthesis, pharmacological and in silico evaluation of 1-(4-di-hydroxy-3,5-dioxa-4-borabicyclo[4.4.0]deca-7,9,11-trien-9-yl)-2-(tert-butylamino)ethanol, a compound designed to act as a beta2 adrenoceptor agonist” (Eur J Med Chem, 2009) one finds Activity, EC50 and Kd data, which are given here for three compounds.

The structures appear in SMILES notation. Activity calls are given as the source filed them. The rule behind the calls is not given here.

Test [1] concerns the target Beta-2 adrenergic receptor (Cavia porcellus) (UniProt Q8K4Z4). Nature of the test: (§1) Agonist activity at adrenergic beta2 receptor in Hartley guinea pig tracheal ring assessed as bronchorelaxation activity against carbachol-induced contraction. Format: functional, tissue-based. The conditions noted are these: Trachea.
For test [2] the target is unchanged. Nature of the test: (§2) Agonist activity at adrenergic beta2 receptor in Hartley guinea pig tracheal ring assessed as bronchorelaxation activity against histamine-induced contraction. It counts as functional, tissue-based. Particulars: Trachea.
The target is the same in test [3]. Nature of the test: Agonist activity at adrenergic beta2 receptor in Hartley guinea pig tracheal ring assessed as bronchorelaxation activity against histamine-induced contraction in presence of propranolol. It counts as functional, tissue-based. The conditions noted are these: Trachea.
For test [4] the target is unchanged. Nature of the test: Agonist activity at adrenergic beta2 receptor in Hartley guinea pig tracheal ring assessed as bronchorelaxation activity against histamine-induced contraction in presence of ICI-118551. Format: functional, tissue-based. The conditions noted are these: Trachea.
Test [5] addresses T1, Beta-2 adrenergic receptor (Cavia porcellus, UniProt Q8K4Z4). The description is as §1. It counts as functional, tissue-based, Trachea.
Test [6] has as its target T1, Beta-2 adrenergic receptor. Described as §2. It counts as functional, tissue-based, Trachea.
Test [7] has as its target Beta-2 adrenergic receptor (Cavia porcellus) (UniProt Q8K4Z4). Nature of the test: Agonist activity at adrenergic beta2 receptor in Hartley guinea pig tracheal ring assessed as maximum bronchorelaxation activity against carbachol-induced contraction at 1 uM. The conditions noted are these: Trachea. It counts as functional, tissue-based.
Test [8] has the same target. Nature of the test: Agonist activity at adrenergic beta2 receptor in Hartley guinea pig tracheal ring assessed as maximum bronchorelaxation activity against histamine-induced contraction at 1 uM. It counts as functional, tissue-based. Particulars: Trachea.
The target of test [9] is T1, Beta-2 adrenergic receptor. Nature of the test: Binding affinity to adrenergic beta2 receptor in Hartley guinea pig tracheal ring.
The target of test [10] is Beta-2 adrenergic receptor (Homo sapiens, UniProt P07550).
Chain of Beta-2 adrenergic receptor (Homo sapiens, UniProt P07550) (P07550 whole entry): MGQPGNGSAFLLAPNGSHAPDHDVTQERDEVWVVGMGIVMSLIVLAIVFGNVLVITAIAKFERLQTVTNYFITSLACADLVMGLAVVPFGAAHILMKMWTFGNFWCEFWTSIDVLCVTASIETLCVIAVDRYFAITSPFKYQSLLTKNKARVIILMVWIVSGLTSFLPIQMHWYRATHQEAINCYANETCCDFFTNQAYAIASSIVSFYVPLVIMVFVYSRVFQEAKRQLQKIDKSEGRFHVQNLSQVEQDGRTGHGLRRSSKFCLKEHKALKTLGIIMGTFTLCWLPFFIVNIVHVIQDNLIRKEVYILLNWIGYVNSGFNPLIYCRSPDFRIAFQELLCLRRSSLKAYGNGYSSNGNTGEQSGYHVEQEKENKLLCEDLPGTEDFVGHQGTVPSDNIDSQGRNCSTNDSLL
Description: Binding affinity to human adrenergic beta2 receptor

T1 sequence (Q8K4Z4 whole entry): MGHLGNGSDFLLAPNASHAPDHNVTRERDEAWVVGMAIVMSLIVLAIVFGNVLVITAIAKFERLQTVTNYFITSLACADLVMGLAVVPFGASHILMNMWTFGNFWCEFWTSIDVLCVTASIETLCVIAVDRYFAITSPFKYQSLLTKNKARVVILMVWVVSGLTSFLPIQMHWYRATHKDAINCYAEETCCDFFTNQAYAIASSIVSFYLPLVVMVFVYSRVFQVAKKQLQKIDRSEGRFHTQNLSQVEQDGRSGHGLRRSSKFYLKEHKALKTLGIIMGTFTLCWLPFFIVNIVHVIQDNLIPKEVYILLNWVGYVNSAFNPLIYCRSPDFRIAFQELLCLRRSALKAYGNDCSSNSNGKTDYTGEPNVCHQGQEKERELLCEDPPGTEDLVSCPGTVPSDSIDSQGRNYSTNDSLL
Chain of Beta-2 adrenergic receptor (Cavia porcellus) (Q8K4Z4 whole entry, looked up): as the sequence (Q8K4Z4 whole entry) above

Take `CC(C)(C)NCC(O)c1ccc(O)c(CO)c1` (centres undefined): the Activity result in test [1] and in test [2] was “Dose-dependent effect” in each case. Further, the result in test [3] and in test [4] was inactive.

The EC50 is the concentration that produces a half-maximal response. The term Kd denotes a measure of binding affinity in units of concentration. A low value points to a tighter complex. For `CC(C)(C)NC[C@@H](O)c1ccc(OB(O)O)c(CO)c1`, the Activity entry in test [1] and in test [2] was “Dose-dependent effect” each time. Further, the figures for the concentration giving a half-maximal response (EC50) in test [5] and in [6] were 2.1 nM and 0.072 nM, respectively. Moreover, the outcome in test [7] and in [8] was Active. Also, the outcome in test [3] and in test [4] was inactive. In test [9], this compound registered a Kd of 110 nM.

On to `CC(C)NCC(O)c1cc(O)cc(O)c1` (centres undefined) [METAPROTERENOL], for which the Kd in [10] stood at 4810 nM.
